Laboratory results taken from patent publication US11591355B2 (Peloton Therapeutics, Inc., priority 2017, dated 2023).

Assays:
Human CD73 = target: T1, Human CD73 (Homo sapiens, UniProt P21589); assay: CD73 Enzyme Assay; format: biochemical; details: 0.25 nM hCD73, 25 μM AMP, kinetic read at 360 nm; read-out: CD73 Enzyme Assay IC50
T1 construct: purchased R&D Systems; host or cells: CHO cells
T1 sequence (P21589 27-549): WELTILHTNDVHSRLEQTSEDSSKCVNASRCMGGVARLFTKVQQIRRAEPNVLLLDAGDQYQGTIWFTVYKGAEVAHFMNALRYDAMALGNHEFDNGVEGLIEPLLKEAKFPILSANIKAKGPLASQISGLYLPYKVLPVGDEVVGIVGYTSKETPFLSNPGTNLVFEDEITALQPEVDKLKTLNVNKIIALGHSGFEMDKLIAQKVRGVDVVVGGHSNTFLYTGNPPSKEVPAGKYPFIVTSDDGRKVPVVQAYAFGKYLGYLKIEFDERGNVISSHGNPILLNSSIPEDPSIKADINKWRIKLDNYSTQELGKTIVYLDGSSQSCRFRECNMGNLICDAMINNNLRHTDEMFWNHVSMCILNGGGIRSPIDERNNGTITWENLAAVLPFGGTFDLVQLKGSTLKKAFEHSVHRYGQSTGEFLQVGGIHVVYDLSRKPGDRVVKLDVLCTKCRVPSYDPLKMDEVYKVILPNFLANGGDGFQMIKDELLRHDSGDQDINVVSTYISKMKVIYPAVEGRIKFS

[1] = target: T2, CD73 on U138 human neuroglioma cells (Homo sapiens, UniProt P21589); assay: CD73 Cell-Based Assay; details: U138 cells, AMP substrate, 2 hours at 37° C., inorganic phosphate by malachite green
T2 construct: U138 cells were obtained from ATCC and cultured in DMEM with 10% FBS; host or cells: U138 human neuroglioma cells
T2 sequence (P21589 27-549): T1 sequence (P21589 27-549)
Outline: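 Whole U138 cells washed free of phosphate were incubated with 200 μM AMP (mixture concentration before equal-volume addition) plus compound in HEPES-buffered saline, pH 7.4, for 2 h at 37 °C, 5% CO2. Adenosine-forming activity read as inorganic phosphate released into supernatant by malachite green.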

SMILES	IC50 (Human CD73) [nM]	IC50 [1] [nM]
CC(C)(C)C(=O)OCOP(=O)(COC[C@H]1O[C@@H](n2ccc3c(N4CC5CCCC5C4)nc(Cl)nc32)[C@H](O)[C@@H]1O)OCOC(=O)C(C)(C)C (stereo partly drawn) [Compound 203, [[(2R,3S,4R,5R)-5-[4-(3,3a,4,5,6,6a-hexa-hydro-1H-cyclopenta-[c]pyrrol-2-yl)-2-chloro-pyrrolo[2,3-d]-pyrimidin-7-yl]-3,4-dihydroxy-tetrahydro-furan-2-yl]methoxy-methyl-(2,2-dimethyl-propanoyloxymethoxy)-phosphoryl]oxymethyl 2,2-dimethylpropanoate]	100 to 1000	10 to 100
C[C@H](Nc1nc(C#N)nc2c1ccn2[C@@H]1O[C@H](COCP(=O)(O)O)[C@@H](O)[C@H]1O)c1ccc(C2CC2)cc1 [Compound 204, [(2R,3S,4R,5R)-5-[2-cyano-4-[[(1S)-1-(4-cyclopropylphenyl)-ethyl]amino]pyrrolo-[2,3-d]pyrimidin-7-yl]-3,4-dihydroxy-tetra-hydrofuran-2-yl]-methoxymethylphos-phonic acid]	< 10	< 10
C[C@@H](Nc1nc(C#N)nc2c1ccn2[C@@H]1O[C@H](COCP(=O)(O)O)[C@@H](O)[C@H]1O)c1ccc(C2CC2)cc1 [Compound 205, [(2R,3S,4R,5R)-5-[2-cyano-4-[[(1R)-1-(4-cyclopropylphenyl)-ethyl]amino]pyrrolo-[2,3-d]pyrimidin-7-yl]-3,4-dihydroxy-tetra-hydrofuran-2-yl]-methoxymethylphos-phonic acid]	< 10	< 10
O=P(O)(O)COC[C@H]1O[C@@H](n2ccc3c(Oc4ccccc4)nc(Cl)nc32)[C@H](O)[C@@H]1O [Compound 206, [(2R,3S,4R,5R)-5-(2-chloro-4-phenoxy-pyrrolo[2,3-d]-pyrimidin-7-yl)-3,4-dihydroxy-tetrahydro-furan-2-yl]methoxy-methylphosphonic acid]	10 to 100	> 1000
O=P(O)(O)COC[C@H]1O[C@@H](n2ccc3c(Sc4ccccc4)nc(Cl)nc32)[C@H](O)[C@@H]1O [Compound 207, [(2R,3S,4R,5R)-5-(2-chloro-4-phenyl-sulfanyl-pyrrolo[2,3-d]-pyrimidin-7-yl)-3,4-dihydroxy-tetrahydro-furan-2-yl]methoxy-methylphosphonic acid]	100 to 1000	100 to 1000
N#Cc1cn([C@@H]2O[C@H](COCP(=O)(O)O)[C@@H](O)[C@H]2O)c2nc(Cl)nc(NC3CCCC3)c12 [Compound 209, [(2R,3S,4R,5R)-5-[2-chloro-5-cyano-4-(cyclopentylamino)-pyrrolo[2,3-d]-pyrimidin-7-yl]-3,4-dihydroxy-tetrahydro-furan-2-yl]methoxy-methylphosphonic acid]	100 to 1000	100 to 1000
O=P(O)(O)COC[C@H]1O[C@@H](n2ccc3c(Nc4ccccc4)nc(Cl)nc32)[C@H](O)[C@@H]1O [Compound 211, [(2R,3S,4R,5R)-5-(4-anilino-2-chloro-pyrrolo[2,3-d]-pyrimidin-7-yl)-3,4-dihydroxy-tetrahydro-furan-2-yl]methoxy-methylphosphonic acid]	100 to 1000	100 to 1000
O=P(O)(O)COC[C@H]1O[C@@H](n2ccc3c(-c4ccccc4)nc(Cl)nc32)[C@H](O)[C@@H]1O [Compound 212, [(2R,3S,4R,5R)-5-(2-chloro-4-phenyl-pyrrolo[2,3-d]-pyrimidin-7-yl)-3,4-dihydroxy-tetrahydro-furan-2-yl]methoxy-methylphosphonic acid]	10 to 100	10 to 100
O=P(O)(O)COC[C@H]1O[C@@H](n2ccc3c(C4CCCC4)nc(Cl)nc32)[C@H](O)[C@@H]1O [Compound 213, [(2R,3S,4R,5R)-5-(2-chloro-4-cyclopentyl-pyrrolo[2,3-d]-pyrimidin-7-yl)-3,4-dihydroxy-tetrahydro-furan-2-yl]methoxy-methylphosphonic acid]	10 to 100	10 to 100
O=P(O)(O)COC[C@H]1O[C@@H](n2ccc3c(N[C@@H](CO)c4ccccc4)nc(Cl)nc32)[C@H](O)[C@@H]1O [Compound 218, [(2R,3S,4R,5R)-5-[2-chloro-4-[[(1R)-2-hydroxy-1-phenyl-ethyl]amino]pyrrolo-[2,3-d]pyrimidin-7-yl]-3,4-dihydroxy-tetra-hydrofuran-2-yl]-methoxymethylphos-phonic acid]	10 to 100	10 to 100
O=P(O)(O)COC[C@H]1O[C@@H](n2ccc3c(OC4CCCC4)nc(Cl)nc32)[C@H](O)[C@@H]1O [Compound 219, [(2R,3S,4R,5R)-5-[2-chloro-4-(cyclo-pentoxy)pyrrolo[2,3-d]-pyrimidin-7-yl]-3,4-dihydroxy-tetrahydro-furan-2-yl]methoxy-methylphosphonic acid]	10 to 100	10 to 100
CC(C)C(=O)COP(=O)(O)COC[C@H]1O[C@@H](n2ccc3c(NC4CCCC4)nc(Cl)nc32)[C@H](O)[C@@H]1O [Compound 222, [(2R,3S,4R,5R)-5-[2-chloro-4-(cyclopentyl-amino)pyrrolo[2,3-d]-pyrimidin-7-yl]-3,4-dihydroxy-tetrahydro-furan-2-yl]methoxy-methyl-(3-methyl-2-oxo-butoxy)phosphinic acid]	100 to 1000	100 to 1000
O=P(O)(O)CP(=O)(O)OC[C@H]1O[C@@H](n2ccc3c(NC4CCCC4)nc(Cl)nc32)[C@H](O)[C@@H]1O [Compound 229]	< 10	< 10
O=P(O)(O)COC[C@H]1O[C@@H](n2ccc3c(NC4CCCC4)nc(I)nc32)[C@H](O)[C@@H]1O [Compound 230, [(2R,3S,4R,5R)-5-[4-(cyclopentylamino)-2-iodo-pyrrolo[2,3-d]-pyrimidin-7-yl]-3,4-dihydroxy-tetrahydro-furan-2-yl]methoxy-methylphosphonic acid]	< 10	< 10
O=P(O)(O)COC[C@H]1O[C@@H](n2ccc3c(NC4CCCC4)nc(C(F)(F)F)nc32)[C@H](O)[C@@H]1O [Compound 231, [(2R,3S,4R,5R)-5-[4-(cyclopentylamino)-2-(trifluoromethyl)-pyrrolo[2,3-d]-pyrimidin-7-yl]-3,4-dihydroxy-tetrahydro-furan-2-yl]methoxy-methylphosphonic acid]	10 to 100	10 to 100
O=P(O)(COC[C@H]1O[C@@H](n2ccc3c(NC4CCCC4)nc(Cl)nc32)[C@H](O)[C@@H]1O)OCC(F)(F)F [Compound 232, [(2R,3S,4R,5R)-5-[2-chloro-4-(cyclopentyl-amino)pyrrolo[2,3-d]-pyrimidin-7-yl]-3,4-dihydroxy-tetrahydro-furan-2-yl]methoxy-methyl-(2,2,2-trifluoro-ethoxy)phosphinic acid]	10 to 100	10 to 100
O=P(O)(O)COC[C@H]1O[C@@H](n2ncc3c(NC4CCCC4)nc(Cl)nc32)[C@H](O)[C@@H]1O [Compound 240, ((((2R,3S,4R,5R)-5-(6-chloro-4-(cyclopentylamino)-1H-pyrazolo[3,4-d]pyrimidin-1-yl)-3,4-dihydroxytetrahydrofuran-2-yl)methoxy)methyl)phosphonic acid]	< 10	< 10
O=P(O)(O)COC[C@H]1O[C@@H](n2ccc3c(NC4CCCC4)nc(C#CCO)nc32)[C@H](O)[C@@H]1O [Compound 243, [(2R,3S,4R,5R)-5-[4-(cyclopentylamino)-2-(3-hydroxyprop-1-ynyl)pyrrolo[2,3-d]-pyrimidin-7-yl]-3,4-dihydroxy-tetrahydro-furan-2-yl]methoxy-methylphosphonic acid]	< 10	< 10
C#Cc1nc(NC2CCCC2)c2ccn([C@@H]3O[C@H](COCP(=O)(O)O)[C@@H](O)[C@H]3O)c2n1 [Compound 244, [(2R,3S,4R,5R)-5-[4-(cyclopentylamino)-2-ethynyl-pyrrolo[2,3-d]-pyrimidin-7-yl]-3,4-dihydroxy-tetrahydro-furan-2-yl]methoxy-methylphosphonic acid]	< 10	< 10
COc1nc(NC2CCCC2)c2ccn([C@@H]3O[C@H](COCP(=O)(O)O)[C@@H](O)[C@H]3O)c2n1 [Compound 247, [(2R,3S,4R,5R)-5-[4-(cyclopentylamino)-2-methoxy-pyrrolo[2,3-d]pyrimidin-7-yl]-3,4-dihydroxy-tetrahydro-furan-2-yl]methoxy-methylphosphonic acid]	10 to 100	10 to 100
O=P(O)(O)COC[C@H]1O[C@@H](n2ccc3c(NC4CCCC4)nc(Oc4cccnc4)nc32)[C@H](O)[C@@H]1O [Compound 248, [(2R,3S,4R,5R)-5-[4-(cyclopentylamino)-2-(3-pyridyloxy)pyrrolo-[2,3-d]pyrimidin-7-yl]-3,4-dihydroxy-tetra-hydrofuran-2-yl]meth-oxymethylphosphonic acid]	100 to 1000	100 to 1000
